The structures appear in SMILES notation.

The results in this text go back to US8268885B2, “Entry inhibitors of the HIV virus” (priority 2003, dated 2012).

Holding throughout (type): cell-based
The test system of series [1] is cell-cell fusion between cell line persistently expressing HIV and a cell line expressing CD4 and CXCR4. The series can be described thus: entry reporter assay (ERA): inhibition of cell-cell fusion, FACS read-out. The following applies: for EC50: Human immunodeficiency virus 1, read-out: ERA assay EC50; for ERA assay % inh: cell-cell fusion, concentration not given. The procedure: (§1) The compounds were tested in the anti-viral replication assay using the MT4-LTR-EGFP cells and in the ERA assay. Toxicity was measured using MT4-CMV-EGFP cells.

Series [2] deals with HIV. Put plainly: anti-viral replication assay using MT4-LTR-EGFP cells. The note with it: Human immunodeficiency virus 1, read-out: antiviral EC50. The procedure: as §1
The nature of series [3]: toxicity assay using MT4-CMV-EGFP cells (reduced expression of GFP reporter). The note with it: human. The procedure:
A toxicity assay wherein a reduced expression of the GFP reporter protein (Mt4-CMV-EGFP cells) serves as a marker for cellular toxicity of a test compound can be used to measure the toxicity of the present compounds.
as §1

For the compound `O=C(COc1ccccc1)Nc1ccc(Oc2ccc(NC(=O)Cc3ccccc3)cc2)cc1` [Compound 33], in series [1], the EC50 came out at 196 µM and the “ERA assay % inh” value was 52%. For the same compound, in series [2], the EC50 worked out at 5.01 µM. The same compound yielded a CC50 in series [3] of 30.2 µM.
The corresponding values for `O=C(COc1ccccc1)Nc1ccc(Oc2ccc([N+](=O)[O-])cc2)cc1` [Compound 24] are 78.4 µM, 68%, 19.5 µM and greater than 100 µM.
In the same order, the values of `COc1ccc(S(=O)(=O)Nc2ccc(Oc3ccc([N+](=O)[O-])cc3)cc2)cc1` [Compound 29] are 177 µM, 59%, 1.18 µM and 61.6 µM.
The corresponding values for `O=C(COc1ccccc1)Nc1ccc(Oc2ccc(NC(=O)c3cccc([N+](=O)[O-])c3)cc2)cc1` [Compound 31] are greater than 100 µM, 13%, 0.43 µM and 3.41 µM.
`O=C(COCc1ccccc1)NCc1cccc(Oc2ccc(NC(=O)COCc3ccccc3)cc2)c1` [Compound 43]: the EC50 in series [1] came out at 83.6 µM; in series [2], 11.8 µM. The “ERA assay % inh” value in series [1] was found to be 54%. Moreover, the CC50 in series [3] was greater than 32 µM.
In the same order, the values of `COc1cccc(C(=O)Nc2ccc(Oc3ccc(NC(=O)c4cccc(OC)c4)cc3)cc2)c1` [Compound 11] are 68.9 µM, greater than 32 µM, 64% and greater than 32 µM.
In the same order, the values of `CC(=O)OCC(=O)Nc1ccc(Oc2ccc(NC(=O)COc3ccccc3)cc2)cc1` [Compound 35] are 150 µM, 3.28 µM, 55% and 23.6 µM.
As to `O=C(COc1ccccc1)Nc1ccc(Oc2ccc(NC(=O)c3ccc4c(c3)OCO4)cc2)cc1` [Compound 32], in series [1], the EC50 is greater than 200 µM and the “ERA assay % inh” value turned out to be 29%. The EC50 in series [2] is 4.17 µM. Further, in series [3], the CC50 was determined as 19.9 µM.
Regarding `COc1cccc(C(=O)Nc2ccc(Oc3ccc(NC(=O)COc4ccccc4)cc3)cc2)c1` [Compound 30], the EC50 in series [2] stood at 0.37 µM. In addition, the CC50 in series [3] is 3.85 µM.
`O=C(CN[C@@H](Cc1ccccc1)C(=O)O)Nc1ccc(Oc2cccc(C(=O)O)c2)cc1C(F)(F)F` [Compound 8]: in series [1], the EC50 was greater than 200 µM and the “ERA assay % inh” value was found to be 3%. The EC50 in series [2] was greater than 100 µM. This compound also came in with a CC50 in series [3] greater than 100 µM.
With `COc1ccc(S(=O)(=O)Nc2ccc(Oc3ccc(NC(=O)c4ccco4)cc3)cc2)cc1` [Compound 40], in series [1], the EC50 worked out at 40.9 µM and the “ERA assay % inh” value amounted to 79%. Besides, the EC50 in series [2] is 0.15 µM. This compound also returned a cytotoxic concentration (CC50) in series [3] of 22.4 µM.
As to `O=C(Cc1ccccc1)Nc1ccc(Oc2ccc(NC(=O)Cc3ccccc3)cc2)cc1` [Compound 10], in series [1], the EC50 was greater than 100 µM and the “ERA assay % inh” value was 48%. In series [2], the EC50 was greater than 32 µM. The same compound came in with a CC50 in series [3] greater than 32 µM.
With `O=C(CNCCN1CCCC1)Nc1ccc(Oc2cccc3c2N(C(=O)CNCCN2CCCC2)CCC3)cc1` [Compound 7], in series [1], the EC50 was greater than 200 µM and the “ERA assay % inh” value came out at 29%. In addition, the EC50 in series [2] is 57.7 µM. The compound also displayed a CC50 in series [3] greater than 100 µM.
The corresponding values for `COc1ccc(S(=O)(=O)Nc2ccc(Oc3ccc(NC(=O)Cc4ccccc4)cc3)cc2)cc1` [Compound 39] are greater than 100 µM, 45%, 1.56 µM and greater than 100 µM.
The corresponding values for `O=C(O)c1ccc(S(=O)(=O)Nc2ccc(Oc3cccc4cnccc34)cc2)cc1` [Compound 6] are 182 µM, 52%, 18.6 µM and greater than 100 µM.
The corresponding values for `CCCCc1ccc(C(=O)Nc2ccc(Oc3cccc4c3N(C(=O)c3ccc(CCCC)cc3)CCC4)cc2)cc1` [Compound 21] are greater than 200 µM, 9%, greater than 34 µM and greater than 100 µM.
For `COc1ccc(S(=O)(=O)Nc2ccc(Oc3ccc(NC(=O)COC(C)=O)cc3)cc2)cc1` [Compound 1, acetic acid {4-[4-(4-methoxy-benzenesulfonylamino)-phenoxy]-phenylcarbamoyl}-methyl ester], in series [1], the EC50 amounted to 92 µM and the “ERA assay % inh” value is 89%. Moreover, the EC50 in series [2] worked out at 1.69 µM. The same compound returned a CC50 in series [3] greater than 27.7 µM.
The corresponding values for `O=C(COc1ccccc1)NCc1cccc(Oc2ccc(NC(=O)COc3ccccc3)cc2)c1` [Compound 42] are greater than 200 µM, 37%, 3.77 µM and 46.5 µM.
In the case of `COc1ccc(S(=O)(=O)Nc2ccc(Oc3ccc(NC(=O)c4cccc([N+](=O)[O-])c4)cc3)cc2)cc1` [Compound 37], the EC50 in series [2] is 3.92 µM. The compound further yielded a CC50 in series [3] greater than 32 µM.
As for `COc1ccc(S(=O)(=O)Nc2ccc(Oc3ccc(NC(=O)c4cccc(OC)c4)cc3)cc2)cc1` [Compound 36], in series [1], the EC50 was greater than 200 µM and the “ERA assay % inh” value is given as 9%. Besides, the EC50 in series [2] came to 1.05 µM. The compound also registered a CC50 in series [3] of 5.87 µM.
As to `O=C(Nc1ccc(Oc2ccc(NC(=O)c3cccc([N+](=O)[O-])c3)cc2)cc1)c1cccc([N+](=O)[O-])c1` [Compound 12], the concentration for a half-maximal effect (EC50) was greater than 200 µM in series [1] and 41.3 µM in series [2]. In addition, in series [1], the “ERA assay % inh” value is reported as 17%. This compound also yielded a CC50 in series [3] of 54.2 µM.
In the same order, the values of `O=C(COc1ccccc1)Nc1ccc(Oc2cccc3c2N(C(=O)COc2ccccc2)CCC3)cc1` [Compound 20] are greater than 100 µM, 3.25 µM, 39% and greater than 32 µM.
The corresponding values for `O=C(Nc1ccc(Oc2cccc3cnccc23)cc1)c1ccc([N+](=O)[O-])cc1` [Compound 4] are greater than 200 µM, 5.34 µM, 30% and greater than 100 µM.
For `N#Cc1ccc(C(=O)Nc2ccc(Oc3cccc4cnccc34)cc2)cc1` [Compound 5], the EC50 in series [2] was 3.29 µM. The compound also had a CC50 in series [3] greater than 100 µM.
Take `CN1CCN(CC(=O)Nc2ccc(Oc3ccc(NC(=O)CN4CCN(C)CC4)cc3)cc2)CC1` [Compound 16]: in series [1], the EC50 is greater than 200 µM and the “ERA assay % inh” value worked out at 42%. Further, the EC50 in series [2] was 55 µM. For the same compound, the CC50 in series [3] was greater than 100 µM.
In the same order, the values of `CCCCc1ccc(C(=O)NCc2cccc(Oc3ccc(NC(=O)c4ccc(CCCC)cc4)cc3)c2)cc1` [Compound 44] are greater than 200 µM, 22%, 2 µM and greater than 32 µM.
With `O=C(COc1ccccc1)Nc1ccc(Oc2ccc(NC(=O)c3ccco3)cc2)cc1` [Compound 34], the EC50 in series [1] was greater than 200 µM; in series [2] it was 1.24 µM. Besides, in series [1], the “ERA assay % inh” value worked out at 41%. The CC50 in series [3] was 83.2 µM.
The corresponding values for `O=C(Nc1ccc(Oc2cccc3c2N(C(=O)c2ccco2)CCC3)cc1)c1ccco1` [Compound 23, Furan-2-carboxylic acid {4-[1-(furan-2-carbonyl)-1,2,3,4-tetrahydro-quinolin-8-yloxy]-phenyl}-amide] are 123 µM, 11.2 µM, 92% and 34.2 µM.
